Experimental data published in patent US20070066616A1, “Inhibitors for extracellular signal-regulated kinase docking domains and uses therefor” (priority 2005, published 2007).

How the values were obtained:
Assay type in all cases: cell-based, human
[1] = system: ERK-mediated phosphorylation of Rsk-1 on Thr573; test: ERK-mediated Rsk-1 phosphorylation (Thr573), immunoblot and densitometry in EGF-stimulated HeLa cells; conditions: immunoblot
Method: Prior to harvesting, cells were pre-incubated with the test compounds for 15-20 minutes and then stimulated with EGF or anisomycin to activate the ERK or p38 MAP kinase pathways, respectively. Control and treated cells were washed twice with cold phosphate buffered saline (PBS, pH 7.2; Invitrogen) and proteins were collected following cell lysis with 300 μl of cold tissue lysis buffer (20 mM Tris, pH 7.4, 137 mM NaCl, 2 mM EDTA, 1% Triton X-100, 0.1% SDS, 25 mM β-glycerophosphate, 2 mM sodium pyrophosphate, 10% glycerol, 1 mM sodium orthovanadate, 1 mM phenylmethylsulfonyl fluoride (PMSF), 1 mM benzamidine), allowed to incubate on ice for about 10 minutes and then centrifuged at 20,000 (X g) to clarify the lysates of insoluble material. The lysates then were diluted with an equal volume of 2X SDS-sample buffer and the proteins were separated on SDS-PAGE for immunoblot analysis. Immunoblot analysis was done as previously described (41-43).
All compounds were subjected to assays of ERK specific phosphorylation of Rsk-1 and/or Elk-1 as examined by immunoblot analysis using phosphorylation specific antibodies. In FIG. 5A HeLa cells were cultured in 24 well plates and pretreated for 20-30 minutes with […] of the selected test compounds. The cells were stimulated with epidermal growth factor (EGF, 50 ng/ml) for 5 minutes to activate the ERK pathway. Cell lysates were collected and immunoblotted for ERK-mediated phosphorylation of Rsk-1 on Thr573. As shown, EGF treatment alone caused a robust increase in Thr573 phosphorylation on Rsk-1 in the absence of test compounds. The presence of test compounds had inhibitory effects on ERK-mediated Rsk-1 phosphorylation.
Compounds 86-98 were first tested for inhibition of ERK mediated phosphorylation of the transcription factor Elk-1, which is an important regulator of cell proliferation. Cells were treated with EGF to activate the ERK pathway and phosphorylation of Elk-1 on the ERK site at S383 was detected by immunoblot analysis (FIG. 5C). […] The effects of the test compounds were also tested with Rsk-1, another ERK substrate involved in regulating cell proliferation.

[2] = system: ERK1/2 phosphorylation by MEK1/2; test: ERK1/2 phosphorylation on activating sites (upstream MEK1/2), immunoblot; conditions: HeLa cells, EGF stimulated
Method: HeLa cells were pretreated with or without 100 μM of test compounds for 5 min (FIGS. 5A-5B) or 15 min (FIGS. 5C-5E) prior to the addition of epidermal growth factor (EGF or E) to stimulate the ERK pathway or anisomycin (A) to stimulate p38 MAP kinase. In FIGS. 5A-5B HeLa cells were treated with EGF for 5 minutes. […] The far left lane is the control (−) with no EGF. […] The control (C) is EGF only treatment. In FIG. 5B cells pretreated with increasing concentrations of compound 76 were stimulated with EGF. ELK-1 phosphorylation on Ser383 (pELK-1) was measured by immunoblotting. The expression of dually phosphorylated ERK1/2 (ppERK1/2) and a-tubulin as a loading control are also shown. […] The pElk-1 phosphorylation in the presence of the test compounds was compared to the EGF only treatment, which was set at 100%. […] The pRsk-1 phosphorylation in the presence of the test compounds was compared to the EGF only treatment, which was set at 100%. […] The pATF2 phosphorylation in the presence of the test compounds was compared to the anisomycin (A) only treatment, which was set at 100%. The data were reproduced in at least 3 independent experiments.
Prior to harvesting, cells were pre-incubated with the test compounds for 15-20 minutes and then stimulated with EGF or anisomycin to activate the ERK or p38 MAP kinase pathways, respectively. […]

[3] = system: ERK-mediated phosphorylation of Elk-1 on S383; test: ERK-mediated Elk-1 phosphorylation (Ser383), immunoblot in EGF-stimulated HeLa cells
Method: Prior to harvesting, cells were pre-incubated with the test compounds for 15-20 minutes and then stimulated with EGF or anisomycin to activate the ERK or p38 MAP kinase pathways, respectively. […] The lysates then were diluted with an equal volume of 2X SDS-sample buffer and the proteins were separated on SDS-PAGE for immunoblot analysis. Immunoblot analysis was done as previously described (41-43).
Cells were treated with EGF to activate the ERK pathway and phosphorylation of Elk-1 on the ERK site at S383 was detected by immunoblot analysis (FIG. 5C). […] The effects of the test compounds were also tested with Rsk-1, another ERK substrate involved in regulating cell proliferation.

[4] = system: HeLa, A549, or SUM-159 cells; test: Colony formation assay, screen of test compounds (FIG. 7A); parameters: dose or concentration left out as unconfirmed; conditions: FIG. 7A screen as printed
Method: HeLa, A549, or SUM-159 cells were plated at a low density of ˜200-400 cells per well in the absence or presence of putative ERK docking domain inhibitors. Cell colonies were stained with crystal violet and counted after 6-10 days. In FIG. 7A cells were grown on 10 cm plates in the absence (−) or presence of 100 mM of compound 67, 36, 68, 81, or 76. Colony formation dose response in the presence of the indicated concentrations of compound 76 or 81 for Hela cells […] (FIG. 7B), A549 cells (50 mM) (FIG. 7C), or SUM-159 cells (50 mM) (FIG. 7D).
Trypsinized cells were plated on 12 or 24 well plates at low densities (200-400 cells per well) in the absence (DMSO only) or presence of test compounds. In additional experiments, cells were first allowed to adhere to the culture dishes for 16 hours prior to treatment with test compounds. The treated cells received a single dose of the test compounds at the beginning of the experiments. The control and treated cells were grown for 8-14 days to allow the formation of colonies. Cells then were fixed for 10 minutes in 4% paraformaldehyde and stained with 0.2% crystal violet (in 20% methanol) for 1-2 minutes. Following several washes with distilled water, the colonies (containing at least 40 cells) were counted. Each individual experiment was repeated on at least 3 separate occasions.
The effects of the active compounds on cell proliferation and survival were tested using a colony formation assay.

CCOc1ccc(C=C2SC(=O)N(CCN)C2=O)cc1 [Compound 76]
effect on ERK-mediated Rsk-1 phosphorylation (in words) [1]: highest inhibition
effect on ERK1/2 phosphorylation on activating sites [2]: largely unaffected
effect on ERK-mediated Elk-1 phosphorylation (in words) [3]: inhibited
effect on colony formation / cell proliferation (in words) [4]: completely inhibited
